This assay concerns the target T1, SIRT1 (Homo sapiens, UniProt Q96EB6).
T1 sequence (Q96EB6 1-747): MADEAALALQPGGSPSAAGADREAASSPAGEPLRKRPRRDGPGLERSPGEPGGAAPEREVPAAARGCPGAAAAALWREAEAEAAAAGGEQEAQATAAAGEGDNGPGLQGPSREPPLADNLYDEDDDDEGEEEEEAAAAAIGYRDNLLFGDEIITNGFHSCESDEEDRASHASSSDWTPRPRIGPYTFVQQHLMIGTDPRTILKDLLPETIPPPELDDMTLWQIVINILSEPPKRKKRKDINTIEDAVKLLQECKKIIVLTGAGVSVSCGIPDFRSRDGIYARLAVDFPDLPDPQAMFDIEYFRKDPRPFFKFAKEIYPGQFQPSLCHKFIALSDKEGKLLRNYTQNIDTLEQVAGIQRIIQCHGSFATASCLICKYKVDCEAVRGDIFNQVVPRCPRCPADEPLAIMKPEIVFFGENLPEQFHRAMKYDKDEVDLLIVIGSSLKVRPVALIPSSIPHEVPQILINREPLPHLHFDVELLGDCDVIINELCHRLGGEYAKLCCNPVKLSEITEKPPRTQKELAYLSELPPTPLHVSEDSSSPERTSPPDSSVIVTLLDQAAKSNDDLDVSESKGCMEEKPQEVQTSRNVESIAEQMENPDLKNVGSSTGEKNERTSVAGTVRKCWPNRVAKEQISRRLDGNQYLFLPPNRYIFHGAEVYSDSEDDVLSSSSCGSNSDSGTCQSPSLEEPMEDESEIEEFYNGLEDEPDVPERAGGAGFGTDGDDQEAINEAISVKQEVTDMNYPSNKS
The assay can be described thus: Mass spectrometry based SIRT1 deacetylase activation assay (acetylated p53-derived peptide substrate). In kind it is biochemical.

Setting [1] is: 0.5 μM peptide substrate, 120 μM βNAD+, 10 nM SIRT1, 25 min at 25° C.
[2] abbreviates: 0.5 μM peptide substrate, 120 μM βNAD+, 10 nM SIRT1, 25 min at 25° C., read-out: EC1.5.
Setting [3] is: 0.5 μM peptide substrate, 120 μM βNAD+, 10 nM SIRT1, 25 minutes at 25° C.

Read-outs that look alike come from different tables or passages of the source.

In the case of `O=C(Nc1ccccn1)c1cccc2[nH]c(-c3ccc(Cl)cc3C(F)(F)F)nc12` [Compound 313], the EC1.5 result was “A (EC1.5<1.0 uM)” and the “Fold Act. (percent maximum fold activation)” value is recorded as “A (Fold activation >200%)”.
On the same counts, the results for `O=C(Nc1cccnc1)c1cccc2[nH]c(-c3cccc(CN4CCCC4)c3)nc12` [Compound 352] are “B (EC1.5 1-25 uM)” and “A (Fold activation >200%)”.
Consider `O=C(Nc1ccncc1)c1cccc2[nH]c(-c3ccccc3C(F)(F)F)nc12` [Compound 262], for which the EC1.5 entry was “A (EC1.5<1.0 uM)” and the “Fold Act. (percent maximum fold activation)” value was “A (Fold activation >200%)”.
`O=C(Nc1cccnc1)c1cccc2[nH]c(-c3cccc4c3OC(F)(F)O4)nc12` [Compound 531]: the “Fold Act. (percent maximum fold activation)” value under setting [1] is reported as “A (Fold activation >200%)”. Further, the EC1.5 under setting [2] is under 1000 nM.
On to `O=C(Nc1cccnn1)c1cncc2[nH]c(-c3ccc(F)cc3C(F)(F)F)nc12` [Compound 696], for which, under setting [3], the EC1.5 result is “B (EC1.5 1-25 uM)” and the “Fold Act. (percent maximum fold activation)” value was “A (Fold activation >200%)”.
Take `Cc1cnc(NC(=O)c2cccc3[nH]c(-c4ccccc4OCCN4CCOCC4)nc23)s1` [Compound 475]: under setting [1], the “Fold Act. (percent maximum fold activation)” value is reported as “A (Fold activation >200%)”. Under setting [2], the EC1.5 lay within 1000 to 25000 nM.
With `O=C(Nc1cccnc1)c1cc(N2CCOCC2)cc2[nH]c(-c3cc(F)ccc3C(F)F)nc12` [Compound 767], under setting [3], the EC1.5 entry is listed as “A (EC1.5<1.0 uM)” and the “Fold Act. (percent maximum fold activation)” value is given as “A (Fold activation >200%)”.
As to `O=C(Nc1nccs1)c1cccc2[nH]c(-c3ccccc3N3CCCC3)nc12` [Compound 280], the EC1.5 entry is “B (EC1.5 1-25 uM)” and the “Fold Act. (percent maximum fold activation)” value is recorded as “A (Fold activation >200%)”.
For the molecule `O=C(Nc1cccnn1)c1cncc2[nH]c(-c3ccc(Cl)cc3C(F)(F)F)nc12` [Compound 651], under setting [3], the EC1.5 entry is reported as “A (EC1.5<1.0 uM)” and the “Fold Act. (percent maximum fold activation)” value was “A (Fold activation >200%)”.
Turning to `CS(=O)(=O)c1cc(Cl)ccc1-c1nc2c(C(=O)Nc3cccnc3)cccc2[nH]1` [Compound 521], under setting [1], the “Fold Act. (percent maximum fold activation)” value is recorded as “A (Fold activation >200%)”. The EC1.5 under setting [2] was in the range of 1000 to 25000 nM.
On the same counts, the results for `O=C(Nc1nccs1)c1cccc2[nH]c(-c3cccc4c3OC(F)(F)O4)nc12` [Compound 427] are “A (Fold activation >200%)” and under 1000 nM.
Turning to `Cc1cnc(NC(=O)c2cccc3[nH]c(-c4ccc(N5CCOCC5)cc4C(F)F)nc23)s1` [Compound 552], the “Fold Act. (percent maximum fold activation)” value under setting [1] was “A (Fold activation >200%)”. Besides, the EC1.5 under setting [2] is under 1000 nM.
On the same counts, the results for `O=C1COc2ccc(-c3nc4c(C(=O)Nc5nccs5)cccc4[nH]3)cc2N1` [Compound 424] are “B (Fold Activation <200%)” and under 1000 nM.
For the molecule `O=C(Nc1ccc[n+]([O-])c1)c1cccc2[nH]c(-c3ccc(Cl)cc3C(F)(F)F)nc12` [Compound 331], the EC1.5 result is “A (EC1.5<1.0 uM)” and the “Fold Act. (percent maximum fold activation)” value is “A (Fold activation >200%)”.
As for `Cc1cnc(NC(=O)c2cncc3[nH]c(-c4ccc(F)cc4C(F)(F)F)nc23)s1` [Compound 697], under setting [3], the EC1.5 entry is on record as “A (EC1.5<1.0 uM)” and the “Fold Act. (percent maximum fold activation)” value is listed as “A (Fold activation >200%)”.
As for `O=C(Nc1nccs1)c1cccc2[nH]c(-c3ncccc3C(F)(F)F)nc12` [Compound 296], the EC1.5 result is “B (EC1.5 1-25 uM)” and the “Fold Act. (percent maximum fold activation)” value was “A (Fold activation >200%)”.
As to `O=C(Nc1ccccc1OCC(O)CO)c1cccc2[nH]c(-c3ccccc3C(F)(F)F)nc12` (stereo not shown) [Compound 729], under setting [3], the EC1.5 result is reported as “B (EC1.5 1-25 uM)” and the “Fold Act. (percent maximum fold activation)” value was “A (Fold activation >200%)”.
In the case of `O=C(Nc1nc(CN2CCOCC2)cs1)c1cccc2[nH]c(-c3ccc(Cl)cc3C(F)F)nc12` [Compound 849], under setting [3], the EC1.5 result is on record as “A (EC1.5<1.0 uM)” and the “Fold Act. (percent maximum fold activation)” value was “A (Fold activation >200%)”.
In the case of `O=C(Nc1cccc[n+]1[O-])c1cccc2[nH]c(-c3ccc(Cl)cc3C(F)(F)F)nc12` [Compound 330], the EC1.5 result is recorded as “B (EC1.5 1-25 uM)” and the “Fold Act. (percent maximum fold activation)” value was “A (Fold activation >200%)”.
In the case of `C[C@@H]1CN(c2ccc(-c3nc4c(C(=O)Nc5cccnc5)cccc4[nH]3)c(C(F)(F)F)c2)C[C@H](C)O1` [Compound 604], under setting [3], the EC1.5 result is given as “A (EC1.5<1.0 uM)” and the “Fold Act. (percent maximum fold activation)” value was “A (Fold activation >200%)”.
For the molecule `Cc1nc(NC(=O)c2cccc3[nH]c(-c4ccc(Cl)cc4C(F)(F)F)nc23)sc1C` [Compound 393], the EC1.5 result is given as “A (EC1.5<1.0 uM)” and the “Fold Act. (percent maximum fold activation)” value is given as “A (Fold activation >200%)”.
Consider `Cc1ccc(OCCN2CCOCC2)c(-c2nc3c(C(=O)Nc4ccccn4)cccc3[nH]2)c1` [Compound 546], for which, under setting [1], the “Fold Act. (percent maximum fold activation)” value is on record as “A (Fold activation >200%)”. Moreover, the EC1.5 under setting [2] was 1000 to 25000 nM.
Regarding `O=C(Nc1nccs1)c1cccc2[nH]c(-c3cc(F)cc(F)c3OCCN3CCOCC3)nc12` [Compound 585], under setting [1], the “Fold Act. (percent maximum fold activation)” value is listed as “B (Fold Activation <200%)”. Also, the EC1.5 under setting [2] was 1000 to 25000 nM.
`O=C(Nc1nccs1)c1cncc2[nH]c(-c3ccc(F)cc3C(F)(F)F)nc12` [Compound 693, 2-(4-fluoro-2-trifluoromethyl-phenyl)-3H-imidazo[4,5-c]pyridine-7-carboxylic acid thiazol-2-ylamide]: under setting [3], the EC1.5 result is “B (EC1.5 1-25 uM)” and the “Fold Act. (percent maximum fold activation)” value was “B (Fold Activation <200%)”.
`O=C(Nc1ccc(OCC(O)CO)cc1)c1cccc2[nH]c(-c3cc(F)ccc3C(F)(F)F)nc12` (stereo not shown) [Compound 494]: the “Fold Act. (percent maximum fold activation)” value under setting [1] is recorded as “A (Fold activation >200%)”. Further, the EC1.5 under setting [2] was under 1000 nM.
For `COc1cc(C(=O)Nc2ccccn2)c2nc(-c3ccccc3C(F)(F)F)[nH]c2c1` [Compound 632, 6-methoxy-N-(pyridin-2-yl)-2-(2-(trifluoromethyl)phenyl)-1H-benzo[d]imidazole-4-carboxamide], under setting [3], the EC1.5 entry was “A (EC1.5<1.0 uM)” and the “Fold Act. (percent maximum fold activation)” value is reported as “A (Fold activation >200%)”.
On the same counts, the results for `O=C(Nc1nc(CN2CCOCC2)cs1)c1cccc2[nH]c(-c3ccc(F)cc3C(F)(F)F)nc12` [Compound 681, 2-(4-fluoro-2-(trifluoromethyl)phenyl)-N-(4-(morpholinomethyl)thiazol-2-yl)-1H-benzo[d]imidazole-4-carboxamide] are “A (EC1.5<1.0 uM)” and “A (Fold activation >200%)”.
On to `O=C(NC1CCNCC1)c1cccc2[nH]c(-c3ccc(F)cc3C(F)(F)F)nc12` [Compound 454], for which the “Fold Act. (percent maximum fold activation)” value under setting [1] is on record as “B (Fold Activation <200%)”. Moreover, the EC1.5 under setting [2] is over 25000 nM.
Consider `Cc1ccc(-c2nc3c(C(=O)Nc4cccc(CN5CCOCC5)n4)cccc3[nH]2)cn1` [Compound 815, 2-(6-methylpyridin-3-yl)-N-(6-(morpholinomethyl)pyridin-2-yl)-1H-benzo[d]imidazole-4-carboxamide], for which, under setting [3], the EC1.5 entry is listed as “A (EC1.5<1.0 uM)” and the “Fold Act. (percent maximum fold activation)” value is on record as “A (Fold activation >200%)”.
On the same counts, the results for `O=C(Nc1cccc(OCC(O)CO)c1)c1cccc2[nH]c(-c3cc(F)ccc3C(F)(F)F)nc12` (stereo not shown) [Compound 741] are “A (EC1.5<1.0 uM)” and “A (Fold activation >200%)”.
Turning to `O=C(Nc1ccccn1)c1cccc2[nH]c(-c3cc(Cl)ccc3OCCN3CCOCC3)nc12` [Compound 502], the “Fold Act. (percent maximum fold activation)” value under setting [1] is “A (Fold activation >200%)”. Also, the EC1.5 under setting [2] was 1000 to 25000 nM.
In the case of `Cc1ncccc1-c1nc2c(C(=O)Nc3cccc(CN4CCOCC4)n3)cccc2[nH]1` [Compound 814, 2-(2-methylpyridin-3-yl)-N-(6-(morpholinomethyl)pyridin-2-yl)-1H-benzo[d]imidazole-4-carboxamide], under setting [3], the EC1.5 result is on record as “A (EC1.5<1.0 uM)” and the “Fold Act. (percent maximum fold activation)” value is “A (Fold activation >200%)”.
Take `O=C(NC1CCOC1=O)c1cccc2[nH]c(-c3cccc(C(F)(F)F)c3)nc12` (stereo not shown) [Compound 273]: the EC1.5 result is “B (EC1.5 1-25 uM)” and the “Fold Act. (percent maximum fold activation)” value is recorded as “A (Fold activation >200%)”.
On the same counts, the results for `N#Cc1cccc(-c2nc3c(C(=O)Nc4nccs4)cccc3[nH]2)c1` [Compound 211] are “B (EC1.5 1-25 uM)” and “A (Fold activation >200%)”.
As for `O=C(Nc1ccc(CN2CCOCC2)nc1)c1cccc2[nH]c(-c3ccccc3C(F)(F)F)nc12` [Compound 674], under setting [3], the EC1.5 result was “A (EC1.5<1.0 uM)” and the “Fold Act. (percent maximum fold activation)” value is reported as “A (Fold activation >200%)”.
